Reference: publication PMC2787644 (Clinical cancer research : an official journal of the …, 2009)
Like-named read-outs stand apart in the source and are kept apart here. One block for each molecule: values may come before it.

Key:
[1] = format: in vivo, human; details: component of flavopiridol + FOLFOX
[2] = Flavopiridol plasma pharmacokinetics; format: in vivo; details: human, intravenous, 80 mg/m2, Cmax, cohort 7a (80 mg/m^2)
[3] = 70 mg/m^2, combined with irinotecan; cited from earlier work
cisplatin-refractory GCT = details: single agent, cited from earlier work

SMILES: O=c1[nH]cc(F)c(=O)[nH]1 [5FU, fluorouracil]
- Maximum tolerated dose (MTD), continuous infusion over 48 hours ([1]; every 2 weeks (cohort 6a)): 1800 mg/m^2
- Maximum tolerated dose (MTD), bolus ([1]; every 2 weeks (fixed dose)): 400 mg/m^2

- Cmax ([2]; the 3 patients who experienced a DLT): 2.26 µM
- Cmax ([2]; the other patients in the cohort): 1.45 µM
SMILES: CN1CC[C@H](c2c(O)cc(O)c3c(=O)cc(-c4ccccc4Cl)oc23)[C@H](O)C1 [flavopiridol, Flavopiridol]
- Cmax [3]: 2.76 ± 0.54 µM

SMILES: O=C1[O][Pt]2([NH][C@@H]3CCCC[C@H]3[NH]2)[O]C1=O [oxaliplatin]
- Overall response rate (cisplatin-refractory GCT; 60 mg/m^2 weekly on days 1, 8, 15 every 28 days): 6%
- Objective response rate (cisplatin-refractory GCT; 130 mg/m^2 every 2 weeks): 19%
